Measured values taken from paper PMC7714403 (JCI Insight, 2020).

Key:
CHEK2 = target: T1, CHEK2 (Homo sapiens, UniProt O96017); assay: KdELECT binding assay
T1 construct: purchased Eurofins DiscoverX

MLK3 = MLK3 (Homo sapiens, UniProt Q16584); assay: KiNativ, OCI cells live cell; type: cell-based; settings: labeling site Lys2, peptide DLKSNNILLLQPIESDDMEHK
CHK2 = CHK2 (Homo sapiens, UniProt O96017); assay: KiNativ, OCI cells live cell; type: cell-based; settings: 2 h
BTK = BTK (Homo sapiens, UniProt Q06187); assay: KdELECT binding assay; parameters: purchased Eurofins DiscoverX
Chain of BTK (Q06187 whole entry): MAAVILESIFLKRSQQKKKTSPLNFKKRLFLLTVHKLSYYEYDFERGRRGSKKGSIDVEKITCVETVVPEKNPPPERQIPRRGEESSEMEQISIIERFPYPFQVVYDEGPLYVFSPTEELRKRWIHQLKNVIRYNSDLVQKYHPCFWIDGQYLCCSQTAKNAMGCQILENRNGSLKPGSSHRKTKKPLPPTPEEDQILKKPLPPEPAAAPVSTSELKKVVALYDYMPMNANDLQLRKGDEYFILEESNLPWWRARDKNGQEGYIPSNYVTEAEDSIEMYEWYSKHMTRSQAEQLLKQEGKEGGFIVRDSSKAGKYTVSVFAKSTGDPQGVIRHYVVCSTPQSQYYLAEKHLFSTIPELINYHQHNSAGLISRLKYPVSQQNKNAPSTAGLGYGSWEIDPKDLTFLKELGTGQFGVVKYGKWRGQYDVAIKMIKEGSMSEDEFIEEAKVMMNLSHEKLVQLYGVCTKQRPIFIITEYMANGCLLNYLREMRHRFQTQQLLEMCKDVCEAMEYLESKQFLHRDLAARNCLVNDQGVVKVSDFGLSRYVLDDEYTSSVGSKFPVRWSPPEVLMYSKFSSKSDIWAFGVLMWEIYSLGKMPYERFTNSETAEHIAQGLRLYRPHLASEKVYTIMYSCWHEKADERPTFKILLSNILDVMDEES

MAP3K15, MAP3K5, MAP3K6 = assay: KiNativ, MOLM13 live cells; type: cell-based, human; settings: 100 nM, 2 hours; Lys1
Protocol: (§1) Samples were analyzed by KiNativ in situ kinase profiling by ActivX Biosciences.

MAP3K2, MAP3K3 = assay: KiNativ, MOLM13 live cells; type: cell-based, human; settings: 100 nM, 2 hours; Lys2
Protocol: as §1

MAP2K1, MAP2K2 = assay: KiNativ, MOLM13 live cells; type: cell-based, human; settings: 100 nM, 2 hours; Lys2
Protocol: as §1

SRPK1, SRPK2 = assay: KiNativ, MOLM13 live cells; type: cell-based, human; settings: 100 nM, 2 hours; Lys1
Protocol: as §1

JNK1, JNK2, JNK3 = assay: KiNativ, MOLM13 live cells; type: cell-based, human; settings: 100 nM, 2 hours; Lys2
Protocol: as §1

Wnk1, Wnk2, Wnk3 = assay: KiNativ, MOLM13 live cells; type: cell-based, human; settings: 100 nM, 2 hours; Lys2
Protocol: as §1

AKT2, AKT3 = assay: KiNativ, MOLM13 live cells; type: cell-based, human; settings: 100 nM, 2 hours; ATP Loop
Protocol: as §1

PCTAIRE2, PCTAIRE3 = assay: KiNativ, MOLM13 live cells; type: cell-based, human; settings: 100 nM, 2 hours; Lys1
Protocol: as §1

MAPKAPK2, MAPKAPK3 = assay: KiNativ, MOLM13 live cells; type: cell-based, human; settings: 100 nM, 2 hours; Lys2
Protocol: as §1

[1] = test system: RSK1 domain1, RSK2 domain1, RSK3 domain1; assay: KiNativ, MOLM13 live cells; type: cell-based, human; settings: 100 nM, 2 hours; Lys2
Protocol: as §1

NEK6, NEK7 = assay: KiNativ, MOLM13 live cells; type: cell-based, human; settings: 100 nM, 2 hours; Lys2
Protocol: as §1

PCTAIRE1, PCTAIRE3 = assay: KiNativ, MOLM13 live cells; type: cell-based, human; settings: 100 nM, 2 hours; Lys2
Protocol: as §1

MST4, YSK1 = assay: KiNativ, MOLM13 live cells; type: cell-based, human; settings: 100 nM, 2 hours; Lys2
Protocol: as §1

KSR1, KSR2 = assay: KiNativ, MOLM13 live cells; type: cell-based, human; settings: 100 nM, 2 hours; Activation Loop
Protocol: as §1

PI4KA, PI4KAP2 = assay: KiNativ, MOLM13 live cells; type: cell-based, human; settings: 100 nM, 2 hours; ATP
Protocol: as §1

ABL, ARG = assay: KiNativ, MOLM13 live cells; type: cell-based, human; settings: 100 nM, 2 hours
Protocol: as §1

[2] = test system: CaMK2a, CaMK2b, CaMK2d, CaMK2g; assay: KiNativ, MOLM13 live cells; type: cell-based, human; settings: 100 nM, 2 hours; Lys2
Protocol: as §1

[3] = test system: ZC1/HGK, ZC2/TNIK, ZC3/MINK; assay: KiNativ, MOLM13 live cells; type: cell-based, human; settings: 100 nM, 2 hours; Lys2
Protocol: as §1

[4] = test system: MSK1 domain1, MSK2 domain1; assay: KiNativ, MOLM13 live cells; type: cell-based, human; settings: 100 nM, 2 hours; ATP Loop
Protocol: as §1

Wnk1, Wnk2 = assay: KiNativ, MOLM13 live cells; type: cell-based, human; settings: 100 nM, 2 hours; ATP Loop
Protocol: as §1

p38d, p38g = assay: KiNativ, MOLM13 live cells; type: cell-based, human; settings: 100 nM, 2 hours; Lys2
Protocol: as §1

AurA, AurB, AurC = assay: KiNativ, MOLM13 live cells; type: cell-based, human; settings: 100 nM, 2 hours; ATP Loop
Protocol: as §1

TAO1, TAO3 = assay: KiNativ, MOLM13 live cells; type: cell-based, human; settings: 100 nM, 2 hours; Lys2
Protocol: as §1

CDK11, CDK8 = assay: KiNativ, MOLM13 live cells; type: cell-based, human; settings: 100 nM, 2 hours; Lys2
Protocol: as §1

MARK2, MARK3 = assay: KiNativ, MOLM13 live cells; type: cell-based, human; settings: 100 nM, 2 hours; Lys2
Protocol: as §1

NDR1, NDR2 = assay: KiNativ, MOLM13 live cells; type: cell-based, human; settings: 100 nM, 2 hours; Activation Loop
Protocol: as §1

MAP2K6 = target: T2, MAP2K6 (Homo sapiens, UniProt P52564); assay: KiNativ, OCI cells live cell; type: cell-based; settings: 2 h
T2 sequence (P52564 1-334): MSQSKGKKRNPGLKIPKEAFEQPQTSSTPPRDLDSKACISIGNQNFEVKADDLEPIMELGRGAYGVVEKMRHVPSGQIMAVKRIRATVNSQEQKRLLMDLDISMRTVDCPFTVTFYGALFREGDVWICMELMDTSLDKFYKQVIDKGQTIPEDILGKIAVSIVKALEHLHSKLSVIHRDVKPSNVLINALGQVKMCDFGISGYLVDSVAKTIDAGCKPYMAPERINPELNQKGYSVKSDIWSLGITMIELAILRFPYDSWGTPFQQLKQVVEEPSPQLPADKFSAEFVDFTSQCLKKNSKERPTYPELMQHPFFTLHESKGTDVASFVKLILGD

PI4KB = PI4KB (Homo sapiens, UniProt Q9UBF8); assay: KiNativ, OCI cells live cell; type: cell-based; settings: 2 h, labeling site ATP
Chain of PI4KB (Q9UBF8 whole entry): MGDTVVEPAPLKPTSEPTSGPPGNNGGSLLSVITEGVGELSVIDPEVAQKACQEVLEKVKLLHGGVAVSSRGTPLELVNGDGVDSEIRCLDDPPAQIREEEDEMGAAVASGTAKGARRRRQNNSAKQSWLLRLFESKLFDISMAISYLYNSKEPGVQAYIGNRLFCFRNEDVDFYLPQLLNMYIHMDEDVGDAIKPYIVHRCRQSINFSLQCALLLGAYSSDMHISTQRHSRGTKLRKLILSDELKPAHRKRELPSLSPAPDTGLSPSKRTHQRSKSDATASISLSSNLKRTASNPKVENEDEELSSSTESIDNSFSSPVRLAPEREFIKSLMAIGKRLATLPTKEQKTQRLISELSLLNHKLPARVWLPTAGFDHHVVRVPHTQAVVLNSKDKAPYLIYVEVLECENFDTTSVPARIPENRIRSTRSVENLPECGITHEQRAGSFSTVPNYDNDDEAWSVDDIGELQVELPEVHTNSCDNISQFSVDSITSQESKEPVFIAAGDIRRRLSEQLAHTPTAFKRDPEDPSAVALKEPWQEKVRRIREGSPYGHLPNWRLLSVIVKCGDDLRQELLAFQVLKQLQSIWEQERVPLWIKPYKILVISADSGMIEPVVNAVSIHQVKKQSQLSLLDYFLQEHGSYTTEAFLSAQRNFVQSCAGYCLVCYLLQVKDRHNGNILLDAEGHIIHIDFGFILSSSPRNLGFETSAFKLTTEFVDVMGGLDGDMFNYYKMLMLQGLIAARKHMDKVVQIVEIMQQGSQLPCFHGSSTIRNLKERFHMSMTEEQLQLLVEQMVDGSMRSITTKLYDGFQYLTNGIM

FLT3 D835V = target: T3, FLT3 D835V (Homo sapiens, UniProt P36888, D835V); assay: KdELECT binding assay
T3 construct: purchased Eurofins DiscoverX

CSF1R = target: T4, CSF1R (Homo sapiens, UniProt P07333); assay: KdELECT binding assay
T4 construct: purchased Eurofins DiscoverX
T4 sequence (P07333 20-972): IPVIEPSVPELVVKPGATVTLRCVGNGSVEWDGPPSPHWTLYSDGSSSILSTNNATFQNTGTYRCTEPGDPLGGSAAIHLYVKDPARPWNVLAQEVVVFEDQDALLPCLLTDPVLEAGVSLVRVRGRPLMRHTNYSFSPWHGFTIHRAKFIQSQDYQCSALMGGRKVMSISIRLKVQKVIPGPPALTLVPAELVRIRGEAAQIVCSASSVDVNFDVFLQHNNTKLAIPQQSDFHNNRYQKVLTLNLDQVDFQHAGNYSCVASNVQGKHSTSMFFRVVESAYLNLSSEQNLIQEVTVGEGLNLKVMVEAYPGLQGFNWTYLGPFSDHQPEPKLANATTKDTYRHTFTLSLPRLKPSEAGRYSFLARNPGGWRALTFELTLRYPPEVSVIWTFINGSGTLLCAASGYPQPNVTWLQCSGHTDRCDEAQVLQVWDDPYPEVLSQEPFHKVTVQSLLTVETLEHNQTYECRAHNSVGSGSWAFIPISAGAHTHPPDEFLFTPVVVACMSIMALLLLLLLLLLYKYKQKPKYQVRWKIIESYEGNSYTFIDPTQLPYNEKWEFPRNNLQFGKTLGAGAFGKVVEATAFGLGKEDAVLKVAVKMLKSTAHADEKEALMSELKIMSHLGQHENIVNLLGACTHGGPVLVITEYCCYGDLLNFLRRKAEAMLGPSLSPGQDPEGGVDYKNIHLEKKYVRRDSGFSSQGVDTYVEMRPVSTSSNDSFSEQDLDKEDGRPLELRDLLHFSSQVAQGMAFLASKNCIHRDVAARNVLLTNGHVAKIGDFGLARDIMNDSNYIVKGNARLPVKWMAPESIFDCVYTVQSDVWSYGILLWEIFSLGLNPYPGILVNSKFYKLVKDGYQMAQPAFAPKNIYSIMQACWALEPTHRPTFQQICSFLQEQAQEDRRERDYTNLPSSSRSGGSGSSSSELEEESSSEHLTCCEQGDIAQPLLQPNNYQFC

Erk2 = Erk2 (Homo sapiens, UniProt P28482); assay: KiNativ, OCI cells live cell; type: cell-based; settings: 2 h, labeling site Lys2, peptide […]
Chain of Erk2 (P28482 whole entry): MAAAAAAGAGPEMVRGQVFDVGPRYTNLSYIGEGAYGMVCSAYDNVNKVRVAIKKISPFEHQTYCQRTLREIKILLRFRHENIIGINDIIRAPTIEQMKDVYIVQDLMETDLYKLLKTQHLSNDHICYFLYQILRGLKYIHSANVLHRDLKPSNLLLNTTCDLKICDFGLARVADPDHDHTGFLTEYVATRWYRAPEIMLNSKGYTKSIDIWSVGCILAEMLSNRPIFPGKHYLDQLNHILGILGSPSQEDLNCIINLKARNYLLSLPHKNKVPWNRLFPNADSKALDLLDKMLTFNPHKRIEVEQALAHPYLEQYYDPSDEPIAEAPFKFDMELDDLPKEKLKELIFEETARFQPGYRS

FGR = FGR (Homo sapiens, UniProt P09769); assay: KiNativ, OCI cells live cell; type: cell-based; settings: 2 h, labeling site Activation Loop, peptide […]
Chain of FGR (P09769 whole entry): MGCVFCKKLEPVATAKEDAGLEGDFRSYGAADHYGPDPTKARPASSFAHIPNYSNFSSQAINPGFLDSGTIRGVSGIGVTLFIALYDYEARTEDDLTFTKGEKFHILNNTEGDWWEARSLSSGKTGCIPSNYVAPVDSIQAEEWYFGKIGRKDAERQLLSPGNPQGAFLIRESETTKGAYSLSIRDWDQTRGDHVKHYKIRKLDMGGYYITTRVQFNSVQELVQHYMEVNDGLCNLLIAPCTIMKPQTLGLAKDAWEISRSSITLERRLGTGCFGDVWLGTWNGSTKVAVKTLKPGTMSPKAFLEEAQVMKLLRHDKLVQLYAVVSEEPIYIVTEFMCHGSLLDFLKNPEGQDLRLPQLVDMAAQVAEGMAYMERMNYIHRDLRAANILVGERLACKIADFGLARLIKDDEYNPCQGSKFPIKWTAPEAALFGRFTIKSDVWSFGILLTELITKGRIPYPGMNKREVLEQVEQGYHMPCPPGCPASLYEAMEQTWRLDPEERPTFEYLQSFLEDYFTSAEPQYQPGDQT

Chain of CHK2 (O96017 whole entry): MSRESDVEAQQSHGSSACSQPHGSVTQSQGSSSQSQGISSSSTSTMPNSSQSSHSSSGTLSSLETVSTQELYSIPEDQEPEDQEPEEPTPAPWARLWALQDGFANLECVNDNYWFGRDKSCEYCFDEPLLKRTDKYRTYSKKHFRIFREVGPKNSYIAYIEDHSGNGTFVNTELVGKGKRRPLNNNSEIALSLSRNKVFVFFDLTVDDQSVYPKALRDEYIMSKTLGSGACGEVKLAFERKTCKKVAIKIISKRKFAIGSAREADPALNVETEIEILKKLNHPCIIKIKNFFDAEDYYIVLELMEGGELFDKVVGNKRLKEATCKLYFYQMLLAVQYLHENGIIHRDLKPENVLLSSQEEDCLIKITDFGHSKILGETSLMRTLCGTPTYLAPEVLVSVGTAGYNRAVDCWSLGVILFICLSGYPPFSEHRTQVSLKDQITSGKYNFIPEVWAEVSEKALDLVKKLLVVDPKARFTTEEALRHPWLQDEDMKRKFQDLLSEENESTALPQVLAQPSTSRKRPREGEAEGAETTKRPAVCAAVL
T1 sequence (O96017 whole entry): as above
Chain of MLK3 (Q16584 whole entry): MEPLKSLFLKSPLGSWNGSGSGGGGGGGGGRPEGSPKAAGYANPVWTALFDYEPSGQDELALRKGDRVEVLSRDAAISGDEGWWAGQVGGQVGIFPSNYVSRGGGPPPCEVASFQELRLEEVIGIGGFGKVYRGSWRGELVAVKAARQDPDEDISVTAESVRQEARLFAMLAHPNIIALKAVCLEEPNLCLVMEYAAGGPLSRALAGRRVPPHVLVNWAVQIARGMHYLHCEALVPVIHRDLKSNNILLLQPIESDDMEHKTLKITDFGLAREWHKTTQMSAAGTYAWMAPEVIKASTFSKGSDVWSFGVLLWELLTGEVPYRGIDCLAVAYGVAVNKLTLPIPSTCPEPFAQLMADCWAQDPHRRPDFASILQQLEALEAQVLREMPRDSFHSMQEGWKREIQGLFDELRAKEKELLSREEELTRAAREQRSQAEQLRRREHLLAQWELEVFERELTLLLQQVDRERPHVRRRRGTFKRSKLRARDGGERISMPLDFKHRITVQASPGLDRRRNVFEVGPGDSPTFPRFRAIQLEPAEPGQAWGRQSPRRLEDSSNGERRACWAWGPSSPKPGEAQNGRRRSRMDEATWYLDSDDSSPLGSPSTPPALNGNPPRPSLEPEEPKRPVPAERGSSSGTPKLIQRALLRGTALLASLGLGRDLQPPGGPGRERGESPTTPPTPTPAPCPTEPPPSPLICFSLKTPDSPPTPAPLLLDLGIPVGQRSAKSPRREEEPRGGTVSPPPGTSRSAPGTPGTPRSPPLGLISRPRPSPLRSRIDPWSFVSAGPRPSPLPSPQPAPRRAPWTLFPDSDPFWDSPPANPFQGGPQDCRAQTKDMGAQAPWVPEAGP

## CN1CCN(Cc2ccc(Nc3ncc(Cl)c(Nc4ccccc4S(=O)(=O)N(C)C)n3)cc2)CC1 [TP-0903]
CHEK2
  Kd: < 5 nM
MLK3
  Inhibition: 31.9%
CHK2; labeling site Lys1, peptide VAIKIISK
  inhibition at 0.1 µM: 37.7%
CHK2; labeling site Lys2, peptide DLKPENVLLSSQEEDCLIK
  inhibition at 0.1 µM: 37.1%
BTK
  Kd: 13 nM
MAP3K15, MAP3K5, MAP3K6
  Inhibition vs DMSO: -11.5%
MAP3K2, MAP3K3
  Inhibition vs DMSO: -4.2%
MAP2K1, MAP2K2
  Inhibition vs DMSO: -17.4%
SRPK1, SRPK2
  Inhibition vs DMSO: 21.8%
JNK1, JNK2, JNK3
  Inhibition vs DMSO: 18.9%
Wnk1, Wnk2, Wnk3
  Inhibition vs DMSO: -31.8%
AKT2, AKT3
  Inhibition vs DMSO: -63.3%
PCTAIRE2, PCTAIRE3
  Inhibition vs DMSO: -8.3%
MAPKAPK2, MAPKAPK3
  Inhibition vs DMSO: -22.0%
[1]
  Inhibition vs DMSO: 15.9%
NEK6, NEK7
  Inhibition vs DMSO: 7.8%
PCTAIRE1, PCTAIRE3
  Inhibition vs DMSO: 81.4%
MST4, YSK1
  Inhibition vs DMSO: 39.6%
KSR1, KSR2
  Inhibition vs DMSO: -11.7%
PI4KA, PI4KAP2
  Inhibition vs DMSO: 11.9%
ABL, ARG; Activation Loop
  Inhibition vs DMSO: 5.0%
ABL, ARG; Lys1
  Inhibition vs DMSO: 24.5%
[2]
  Inhibition vs DMSO: -2.0%
[3]
  Inhibition vs DMSO: 50.7%
[4]
  Inhibition vs DMSO: -6.6%
Wnk1, Wnk2
  Inhibition vs DMSO: -30.2%
p38d, p38g
  Inhibition vs DMSO: -8.7%
AurA, AurB, AurC
  Inhibition vs DMSO: 68.0%
TAO1, TAO3
  Inhibition vs DMSO: 9.9%
CDK11, CDK8
  Inhibition vs DMSO: -1.1%
MARK2, MARK3
  Inhibition vs DMSO: 37.1%
NDR1, NDR2
  Inhibition vs DMSO: -0.8%
MAP2K6; labeling site Activation Loop, peptide MCDFGISGYLVDSVAKTIDAGCKPYMAPER
  inhibition at 0.1 µM: 8.8%
MAP2K6; labeling site Lys1, peptide HVPSGQIMAVKR
  inhibition at 0.1 µM: 28%
MAP2K6; labeling site Lys2, peptide DVKPSNVLINALGQVK
  inhibition at 0.1 µM: 18.6%
PI4KB; peptide LLSVIVKCGDDLRQELLAFQVLK
  inhibition at 0.1 µM: -13.1%
PI4KB; peptide VPHTQAVVLNSKDK
  inhibition at 0.1 µM: -23.3%
FLT3 D835V
  Kd: 2.1 nM
CSF1R
  Kd: 16 nM
Erk2
  inhibition at 0.1 µM: 22.7%
FGR
  inhibition at 0.1 µM: 9.5%
